Experiments:
[1] = molecular target: T1, integrin α4β1 (RAMOS human cells adhering to VCAM-1) (Homo sapiens, UniProt P05556+P13612); assay: Integrin α4β1-VCAM cell adhesion assay (RAMOS cells); type: cell-based; settings: for IC50: Ramos cells adhering to VCAM, read-out: Ramos Adhesion α4β1/VCAM IC50; for Ratio Ramos/RPMI: ratio of cell adhesion IC50s, Ramos α4β1/VCAM over RPMI8866 α4β7/MAdCAM
T1 construct: Ramos cells, which express integrin α4β1; host or cells: RAMOS
Outline: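 Human RAMOS cells loaded with calcein ([…] in PBS, 37° C, 30 min) allowed to adhere to VCAM-1-coated wells blocked with 1% milk. After PBS washes, adherent-cell fluorescence measured and cell-free well background subtracted to build dose-response.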

[2] = molecular target: T2, recombinant integrin α4β1 (Homo sapiens, UniProt P05556+P13612); assay: Integrin α4β1—VCAM-1 competition ELISA; type: binding; settings: for ELISA Assay Ratio β1/β7: ratio of ELISA IC50s, α4β1 over α4β7; for IC50: read-out: ELISA α4β1 Assay IC50
T2 construct: purchased R&D Systems 5397-A3-050
Outline: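 Detection of bound ligand used HRP-conjugated anti-human IgG Fc, 1 h with agitation at room temperature. This followed a 2 h room-temperature, 300 rpm equilibration of compound in the coated wells. Washes were done in 50 mM Tris, 100 mM NaCl, 1 mM MnCl2, 0.05% Tween.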

[3] = molecular target: T3, recombinant integrin α4β7 (Homo sapiens, UniProt P13612+P26010, DEL724-798); assay: Integrin α4β7—MAdCAM-1 ELISA competition assay; type: binding; settings: read-out: ELISA α4β7 Assay IC50
T3 construct: purchased R&D Systems 5397-A3-050
T3 sequence (P13612 34-970 limits assumed): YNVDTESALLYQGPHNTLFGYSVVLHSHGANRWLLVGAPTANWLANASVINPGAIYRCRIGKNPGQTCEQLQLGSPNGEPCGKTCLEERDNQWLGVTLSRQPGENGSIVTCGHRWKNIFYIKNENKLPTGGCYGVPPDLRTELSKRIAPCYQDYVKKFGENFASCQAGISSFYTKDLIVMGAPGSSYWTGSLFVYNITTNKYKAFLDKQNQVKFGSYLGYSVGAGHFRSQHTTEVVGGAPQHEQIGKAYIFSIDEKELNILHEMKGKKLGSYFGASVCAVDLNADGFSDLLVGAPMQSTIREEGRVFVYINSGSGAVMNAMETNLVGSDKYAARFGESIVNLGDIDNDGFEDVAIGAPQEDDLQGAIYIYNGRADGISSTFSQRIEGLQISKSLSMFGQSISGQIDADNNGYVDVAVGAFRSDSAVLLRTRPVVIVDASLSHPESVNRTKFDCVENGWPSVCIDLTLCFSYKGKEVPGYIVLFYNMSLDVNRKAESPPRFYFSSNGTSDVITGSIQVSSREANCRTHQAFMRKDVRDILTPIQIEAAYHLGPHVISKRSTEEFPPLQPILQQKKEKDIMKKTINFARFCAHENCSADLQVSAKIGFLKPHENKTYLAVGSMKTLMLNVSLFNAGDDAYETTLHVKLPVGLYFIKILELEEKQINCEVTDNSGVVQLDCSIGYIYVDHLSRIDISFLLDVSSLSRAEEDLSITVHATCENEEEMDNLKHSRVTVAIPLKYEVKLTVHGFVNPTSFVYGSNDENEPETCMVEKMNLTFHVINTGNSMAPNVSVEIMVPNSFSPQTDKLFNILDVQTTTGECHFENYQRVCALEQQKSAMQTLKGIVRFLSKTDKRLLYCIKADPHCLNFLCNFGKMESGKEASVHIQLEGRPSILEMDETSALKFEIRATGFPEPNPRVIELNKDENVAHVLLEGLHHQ
T3 sequence (P26010 20-723 limits assumed): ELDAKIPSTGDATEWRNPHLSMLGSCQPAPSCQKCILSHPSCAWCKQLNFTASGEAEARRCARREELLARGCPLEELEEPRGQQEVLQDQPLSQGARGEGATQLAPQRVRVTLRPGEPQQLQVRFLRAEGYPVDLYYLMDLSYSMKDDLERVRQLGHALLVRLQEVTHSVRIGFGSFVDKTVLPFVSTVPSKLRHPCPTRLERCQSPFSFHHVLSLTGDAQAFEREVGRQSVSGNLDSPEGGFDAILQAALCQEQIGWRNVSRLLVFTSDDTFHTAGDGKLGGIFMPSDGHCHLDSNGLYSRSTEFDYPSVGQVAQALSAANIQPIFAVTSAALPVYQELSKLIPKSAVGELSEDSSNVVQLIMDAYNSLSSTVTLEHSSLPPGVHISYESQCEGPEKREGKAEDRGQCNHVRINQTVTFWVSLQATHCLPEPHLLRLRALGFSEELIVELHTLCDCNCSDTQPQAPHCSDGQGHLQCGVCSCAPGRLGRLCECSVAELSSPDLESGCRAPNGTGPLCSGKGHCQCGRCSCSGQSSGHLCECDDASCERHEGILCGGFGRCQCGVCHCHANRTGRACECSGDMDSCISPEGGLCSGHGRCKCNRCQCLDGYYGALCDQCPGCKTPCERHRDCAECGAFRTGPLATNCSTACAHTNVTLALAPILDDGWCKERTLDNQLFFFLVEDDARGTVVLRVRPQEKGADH

T1 sequence (P13612 34-1032): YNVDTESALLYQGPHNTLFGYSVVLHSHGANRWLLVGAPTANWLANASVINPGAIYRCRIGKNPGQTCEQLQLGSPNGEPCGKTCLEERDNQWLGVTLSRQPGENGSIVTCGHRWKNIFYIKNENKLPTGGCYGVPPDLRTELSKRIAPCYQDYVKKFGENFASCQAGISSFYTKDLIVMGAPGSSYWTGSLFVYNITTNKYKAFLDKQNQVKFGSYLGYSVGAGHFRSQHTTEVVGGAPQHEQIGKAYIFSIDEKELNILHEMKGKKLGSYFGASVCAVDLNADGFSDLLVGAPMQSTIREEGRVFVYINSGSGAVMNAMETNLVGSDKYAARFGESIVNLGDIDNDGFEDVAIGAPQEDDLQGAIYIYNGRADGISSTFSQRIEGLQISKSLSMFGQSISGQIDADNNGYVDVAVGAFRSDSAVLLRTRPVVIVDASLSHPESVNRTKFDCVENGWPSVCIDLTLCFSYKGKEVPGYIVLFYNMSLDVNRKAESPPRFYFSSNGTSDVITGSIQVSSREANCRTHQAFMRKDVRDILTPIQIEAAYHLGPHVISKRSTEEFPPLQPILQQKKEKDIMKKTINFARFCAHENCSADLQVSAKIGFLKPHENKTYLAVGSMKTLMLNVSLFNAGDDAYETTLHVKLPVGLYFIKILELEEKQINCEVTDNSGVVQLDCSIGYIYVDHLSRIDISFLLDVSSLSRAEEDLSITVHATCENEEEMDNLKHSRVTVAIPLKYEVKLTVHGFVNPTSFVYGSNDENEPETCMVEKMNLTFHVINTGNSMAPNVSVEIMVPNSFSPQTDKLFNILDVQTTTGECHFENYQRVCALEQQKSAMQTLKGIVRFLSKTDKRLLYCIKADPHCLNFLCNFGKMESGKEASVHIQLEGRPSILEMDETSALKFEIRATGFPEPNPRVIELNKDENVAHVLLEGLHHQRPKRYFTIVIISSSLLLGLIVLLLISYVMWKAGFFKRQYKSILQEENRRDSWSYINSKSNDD
T1 sequence (P05556 21-798): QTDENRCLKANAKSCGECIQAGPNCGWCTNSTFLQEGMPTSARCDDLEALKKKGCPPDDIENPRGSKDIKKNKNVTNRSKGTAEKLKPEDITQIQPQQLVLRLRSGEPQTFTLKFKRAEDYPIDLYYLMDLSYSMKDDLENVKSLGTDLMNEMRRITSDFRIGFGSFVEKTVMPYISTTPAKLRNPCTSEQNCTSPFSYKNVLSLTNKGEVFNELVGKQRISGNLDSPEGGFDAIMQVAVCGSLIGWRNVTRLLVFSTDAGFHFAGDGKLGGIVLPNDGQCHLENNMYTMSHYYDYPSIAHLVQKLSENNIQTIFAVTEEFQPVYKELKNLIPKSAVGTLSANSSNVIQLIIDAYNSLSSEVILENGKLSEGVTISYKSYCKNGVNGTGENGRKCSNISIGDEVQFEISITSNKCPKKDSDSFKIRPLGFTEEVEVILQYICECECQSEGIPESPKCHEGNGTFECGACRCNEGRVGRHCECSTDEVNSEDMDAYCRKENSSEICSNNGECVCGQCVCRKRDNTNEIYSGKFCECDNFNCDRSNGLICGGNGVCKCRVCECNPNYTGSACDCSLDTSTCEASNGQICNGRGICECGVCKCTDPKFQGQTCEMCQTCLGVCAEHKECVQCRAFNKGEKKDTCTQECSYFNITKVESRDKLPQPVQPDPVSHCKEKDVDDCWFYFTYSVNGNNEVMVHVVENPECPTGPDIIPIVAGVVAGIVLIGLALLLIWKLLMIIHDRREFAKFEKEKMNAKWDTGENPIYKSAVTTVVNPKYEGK
T2 sequence (P05556 21-728 limits assumed, one chain of several): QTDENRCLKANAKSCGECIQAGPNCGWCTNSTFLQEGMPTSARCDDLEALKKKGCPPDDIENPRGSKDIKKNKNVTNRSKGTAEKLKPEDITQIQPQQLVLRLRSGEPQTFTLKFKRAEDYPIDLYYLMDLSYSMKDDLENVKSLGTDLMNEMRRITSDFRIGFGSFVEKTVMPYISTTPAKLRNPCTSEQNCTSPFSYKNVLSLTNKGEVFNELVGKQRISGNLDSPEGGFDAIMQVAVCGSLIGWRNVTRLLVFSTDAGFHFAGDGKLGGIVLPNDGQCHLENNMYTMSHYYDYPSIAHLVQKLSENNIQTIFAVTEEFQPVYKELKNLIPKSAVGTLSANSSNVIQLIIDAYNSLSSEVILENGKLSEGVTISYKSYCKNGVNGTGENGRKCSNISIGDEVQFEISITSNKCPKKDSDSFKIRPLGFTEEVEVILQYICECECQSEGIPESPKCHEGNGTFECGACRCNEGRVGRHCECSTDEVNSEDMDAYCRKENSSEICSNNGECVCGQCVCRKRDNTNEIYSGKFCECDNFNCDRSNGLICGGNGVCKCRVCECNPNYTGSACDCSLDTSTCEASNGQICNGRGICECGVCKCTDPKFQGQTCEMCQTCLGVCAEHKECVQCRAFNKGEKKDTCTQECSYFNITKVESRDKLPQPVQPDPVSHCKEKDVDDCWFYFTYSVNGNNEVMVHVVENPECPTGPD

SMILES | IC50 [1] [nM] | Ratio Ramos/RPMI [1] | ELISA Assay Ratio β1/β7 [2] | IC50 [2] [nM] | IC50 [3] [nM]
CC(C)C[C@@H]1NC(=O)c2ccc(-c3ccc(N4CCN(C(=O)C5(C(=O)N6CCN(c7ccc(-c8ccc9cc8CNC(=O)[C@@H]8CCCN8[C@H](C(=O)NC(C)(C)C)[C@H](C)NC(=O)[C@H]([C@@H](C)O)NC(=O)[C@H](CC(=O)O)NC(=O)[C@H](CC(C)C)NC9=O)cc7)CC6)Cc6ccccc6C5)CC4)cc3)c(c2)CNC(=O)[C@@H]2CCCN2[C@H](C(=O)NC(C)(C)C)[C@H](C)NC(=O)[C@H]([C@@H](C)O)NC(=O)[C@H](CC(=O)O)NC1=O [Compound 461] | 1220 | 31 | 0.4 | 7.9 | 18
CC(C)C[C@@H]1NC(=O)C[C@H](CCCCN)N(C)C(=O)[C@H](CCCCNC(=O)CCOCCOCCOCCOCCOCCOCCOCCC(=O)NCCCC[C@@H]2NC(=O)[C@@H]3CCCN3[C@H](C(=O)NC(C)(C)C)[C@H](C)NC(=O)[C@H]([C@@H](C)O)NC(=O)[C@H](CC(=O)O)NC(=O)[C@H](CC(C)C)NC(=O)C[C@H](CCCCN)N(C)C2=O)NC(=O)[C@@H]2CCCN2[C@H](C(=O)NC(C)(C)C)[C@H](C)NC(=O)[C@H]([C@@H](C)O)NC(=O)[C@H](CC(=O)O)NC1=O [Compound 536] | 7820 | 479 | 0.9 | 8.9 | 9.5

From US11713338B2, “Cyclic peptides multimers targeting α-4-β-7 integrin” (priority 2016, dated 2023)
